Measurements from ChEMBL document CHEMBL3797105, “Investigation of triazole-linked indole and oxindole glycoconjugates as potential anticancer agents: novel Akt/PKB signaling pathway inhibitors” (Medchemcomm, 2016).

test system: not listed separately; assay: Cytotoxicity against human DU145 cells after 48 hrs by sulforhodamine B assay; format: functional, cell-based; details: DU-145, 48 h

Structure (SMILES)	IC50 [µM]
COc1ccc2c(c1)c(/C=N/O)cn2Cc1cn([C@@H]2O[C@H](COC(C)=O)[C@@H](OC(C)=O)[C@H](OC(C)=O)[C@H]2OC(C)=O)nn1	88.4
COc1ccc2c(c1)c(C=O)cn2Cc1cn([C@@H]2O[C@H](COC(C)=O)[C@@H](OC(C)=O)[C@H](OC(C)=O)[C@H]2OC(C)=O)nn1	136
CC(=O)OC[C@H]1O[C@@H](n2cc(CN3C(=O)/C(=C\c4ccc(N(C)C)cc4)c4ccccc43)nn2)[C@H](OC(C)=O)[C@@H](OC(C)=O)[C@@H]1OC(C)=O	10.1
CC(=O)OC[C@H]1O[C@@H](n2cc(CN3C(=O)/C(=C/c4ccco4)c4ccccc43)nn2)[C@H](OC(C)=O)[C@@H](OC(C)=O)[C@@H]1OC(C)=O	10
CC(=O)OC[C@H]1O[C@@H](n2cc(CN3C(=O)/C(=C\c4cccs4)c4ccccc43)nn2)[C@H](OC(C)=O)[C@@H](OC(C)=O)[C@@H]1OC(C)=O	22.8
CC(=O)OC[C@H]1O[C@@H](n2cc(CN3C(=O)/C(=C\C=C\c4ccccc4)c4ccccc43)nn2)[C@H](OC(C)=O)[C@@H](OC(C)=O)[C@@H]1OC(C)=O	19.5
CC(=O)OC[C@H]1O[C@@H](n2cc(CN3C(=O)/C(=C/c4ccccc4)c4ccccc43)nn2)[C@H](OC(C)=O)[C@@H](OC(C)=O)[C@@H]1OC(C)=O	22.8
COc1ccc(/C=C2\C(=O)N(Cc3cn([C@@H]4O[C@H](COC(C)=O)[C@@H](OC(C)=O)[C@H](OC(C)=O)[C@H]4OC(C)=O)nn3)c3ccccc32)cc1OC	24.9

test system: A549; assay: Cytotoxicity against human A549 cells after 48 hrs by sulforhodamine B assay; format: functional, cell-based; details: A549, 48 h

Structure (SMILES)	IC50 [µM]
COc1ccc2c(c1)c(/C=N/O)cn2Cc1cn([C@@H]2O[C@H](COC(C)=O)[C@@H](OC(C)=O)[C@H](OC(C)=O)[C@H]2OC(C)=O)nn1	> 200
COc1ccc2c(c1)c(C=O)cn2Cc1cn([C@@H]2O[C@H](COC(C)=O)[C@@H](OC(C)=O)[C@H](OC(C)=O)[C@H]2OC(C)=O)nn1	106
CC(=O)OC[C@H]1O[C@@H](n2cc(CN3C(=O)/C(=C\c4ccc(N(C)C)cc4)c4ccccc43)nn2)[C@H](OC(C)=O)[C@@H](OC(C)=O)[C@@H]1OC(C)=O	17.7
CC(=O)OC[C@H]1O[C@@H](n2cc(CN3C(=O)/C(=C/c4ccco4)c4ccccc43)nn2)[C@H](OC(C)=O)[C@@H](OC(C)=O)[C@@H]1OC(C)=O	14.5
CC(=O)OC[C@H]1O[C@@H](n2cc(CN3C(=O)/C(=C\c4cccs4)c4ccccc43)nn2)[C@H](OC(C)=O)[C@@H](OC(C)=O)[C@@H]1OC(C)=O	16.1
CC(=O)OC[C@H]1O[C@@H](n2cc(CN3C(=O)/C(=C\C=C\c4ccccc4)c4ccccc43)nn2)[C@H](OC(C)=O)[C@@H](OC(C)=O)[C@@H]1OC(C)=O	58.4
CC(=O)OC[C@H]1O[C@@H](n2cc(CN3C(=O)/C(=C/c4ccccc4)c4ccccc43)nn2)[C@H](OC(C)=O)[C@@H](OC(C)=O)[C@@H]1OC(C)=O	20.6
COc1ccc(/C=C2\C(=O)N(Cc3cn([C@@H]4O[C@H](COC(C)=O)[C@@H](OC(C)=O)[C@H](OC(C)=O)[C@H]4OC(C)=O)nn3)c3ccccc32)cc1OC	23.3

test system: MCF7; assay: Cytotoxicity against human MCF7 cells after 48 hrs by sulforhodamine B assay; format: functional, cell-based; details: MCF7, 48 h

Structure (SMILES)	IC50 [µM]
COc1ccc2c(c1)c(/C=N/O)cn2Cc1cn([C@@H]2O[C@H](COC(C)=O)[C@@H](OC(C)=O)[C@H](OC(C)=O)[C@H]2OC(C)=O)nn1	51
COc1ccc2c(c1)c(C=O)cn2Cc1cn([C@@H]2O[C@H](COC(C)=O)[C@@H](OC(C)=O)[C@H](OC(C)=O)[C@H]2OC(C)=O)nn1	> 200
CC(=O)OC[C@H]1O[C@@H](n2cc(CN3C(=O)/C(=C\c4ccc(N(C)C)cc4)c4ccccc43)nn2)[C@H](OC(C)=O)[C@@H](OC(C)=O)[C@@H]1OC(C)=O	29.8
CC(=O)OC[C@H]1O[C@@H](n2cc(CN3C(=O)/C(=C/c4ccco4)c4ccccc43)nn2)[C@H](OC(C)=O)[C@@H](OC(C)=O)[C@@H]1OC(C)=O	29.1
CC(=O)OC[C@H]1O[C@@H](n2cc(CN3C(=O)/C(=C\c4cccs4)c4ccccc43)nn2)[C@H](OC(C)=O)[C@@H](OC(C)=O)[C@@H]1OC(C)=O	36.1
CC(=O)OC[C@H]1O[C@@H](n2cc(CN3C(=O)/C(=C\C=C\c4ccccc4)c4ccccc43)nn2)[C@H](OC(C)=O)[C@@H](OC(C)=O)[C@@H]1OC(C)=O	34.1
CC(=O)OC[C@H]1O[C@@H](n2cc(CN3C(=O)/C(=C/c4ccccc4)c4ccccc43)nn2)[C@H](OC(C)=O)[C@@H](OC(C)=O)[C@@H]1OC(C)=O	30.2
COc1ccc(/C=C2\C(=O)N(Cc3cn([C@@H]4O[C@H](COC(C)=O)[C@@H](OC(C)=O)[C@H](OC(C)=O)[C@H]4OC(C)=O)nn3)c3ccccc32)cc1OC	23.5

test system: not listed separately; assay: Cytotoxicity against mouse NIH/3T3 cells after 48 hrs by sulforhodamine B assay; details: NIH3T3, 48 h

Structure (SMILES)	IC50 [µM]
COc1ccc2c(c1)c(/C=N/O)cn2Cc1cn([C@@H]2O[C@H](COC(C)=O)[C@@H](OC(C)=O)[C@H](OC(C)=O)[C@H]2OC(C)=O)nn1	26.2
COc1ccc2c(c1)c(C=O)cn2Cc1cn([C@@H]2O[C@H](COC(C)=O)[C@@H](OC(C)=O)[C@H](OC(C)=O)[C@H]2OC(C)=O)nn1	> 200
CC(=O)OC[C@H]1O[C@@H](n2cc(CN3C(=O)/C(=C\c4ccc(N(C)C)cc4)c4ccccc43)nn2)[C@H](OC(C)=O)[C@@H](OC(C)=O)[C@@H]1OC(C)=O	17
CC(=O)OC[C@H]1O[C@@H](n2cc(CN3C(=O)/C(=C/c4ccco4)c4ccccc43)nn2)[C@H](OC(C)=O)[C@@H](OC(C)=O)[C@@H]1OC(C)=O	31.8
CC(=O)OC[C@H]1O[C@@H](n2cc(CN3C(=O)/C(=C\c4cccs4)c4ccccc43)nn2)[C@H](OC(C)=O)[C@@H](OC(C)=O)[C@@H]1OC(C)=O	14.6
CC(=O)OC[C@H]1O[C@@H](n2cc(CN3C(=O)/C(=C\C=C\c4ccccc4)c4ccccc43)nn2)[C@H](OC(C)=O)[C@@H](OC(C)=O)[C@@H]1OC(C)=O	25.9
CC(=O)OC[C@H]1O[C@@H](n2cc(CN3C(=O)/C(=C/c4ccccc4)c4ccccc43)nn2)[C@H](OC(C)=O)[C@@H](OC(C)=O)[C@@H]1OC(C)=O	> 100
COc1ccc(/C=C2\C(=O)N(Cc3cn([C@@H]4O[C@H](COC(C)=O)[C@@H](OC(C)=O)[C@H](OC(C)=O)[C@H]4OC(C)=O)nn3)c3ccccc32)cc1OC	> 100

test system: HeLa; assay: Cytotoxicity against human HeLa cells after 48 hrs by sulforhodamine B assay; format: functional, cell-based; details: not given

Structure (SMILES)	IC50 [µM]
COc1ccc2c(c1)c(/C=N/O)cn2Cc1cn([C@@H]2O[C@H](COC(C)=O)[C@@H](OC(C)=O)[C@H](OC(C)=O)[C@H]2OC(C)=O)nn1	> 200
COc1ccc2c(c1)c(C=O)cn2Cc1cn([C@@H]2O[C@H](COC(C)=O)[C@@H](OC(C)=O)[C@H](OC(C)=O)[C@H]2OC(C)=O)nn1	> 200
CC(=O)OC[C@H]1O[C@@H](n2cc(CN3C(=O)/C(=C\c4ccc(N(C)C)cc4)c4ccccc43)nn2)[C@H](OC(C)=O)[C@@H](OC(C)=O)[C@@H]1OC(C)=O	25
CC(=O)OC[C@H]1O[C@@H](n2cc(CN3C(=O)/C(=C/c4ccco4)c4ccccc43)nn2)[C@H](OC(C)=O)[C@@H](OC(C)=O)[C@@H]1OC(C)=O	29.9
CC(=O)OC[C@H]1O[C@@H](n2cc(CN3C(=O)/C(=C\c4cccs4)c4ccccc43)nn2)[C@H](OC(C)=O)[C@@H](OC(C)=O)[C@@H]1OC(C)=O	> 100
CC(=O)OC[C@H]1O[C@@H](n2cc(CN3C(=O)/C(=C\C=C\c4ccccc4)c4ccccc43)nn2)[C@H](OC(C)=O)[C@@H](OC(C)=O)[C@@H]1OC(C)=O	98.1
CC(=O)OC[C@H]1O[C@@H](n2cc(CN3C(=O)/C(=C/c4ccccc4)c4ccccc43)nn2)[C@H](OC(C)=O)[C@@H](OC(C)=O)[C@@H]1OC(C)=O	37.1
COc1ccc(/C=C2\C(=O)N(Cc3cn([C@@H]4O[C@H](COC(C)=O)[C@@H](OC(C)=O)[C@H](OC(C)=O)[C@H]4OC(C)=O)nn3)c3ccccc32)cc1OC	63.4
